The test system of one assay is SK-OV-3. Nature of the assay: Cytotoxicity against human SKOV3 cells by SRB assay. In kind it is functional. Background: The SRB assay estimates cell density from bound dye.
Assay [1] can be described thus: Inhibition of tubulin polymerization in bovine brain after 20 mins by spectrophotometry. The arrangement: species or system Bos taurus.
In another assay the test system is DU-145. Put plainly: Cytotoxicity against human DU145 cells by SRB assay. Format: functional.
Another assay concerns NCI-H460. Nature of the assay: Cytotoxicity against human NCI-H460 cells by SRB assay. In kind it is functional.

The source of these data is ChEMBL document CHEMBL1811895, “Regioselective synthesis of water-soluble monophosphate derivatives of combretastatin A-1” (J Nat Prod, 2011).

As for `COc1ccc(/C=C\c2cc(OC)c(OC)c(OC)c2)c(OP(=O)(O)O)c1O`, the GI50 – broadly, the concentration giving 50% growth inhibition – with SK-OV-3 is 1.64 nM; with DU-145, 2.77 nM; with NCI-H460 it was 3.56 nM. The IC50 – broadly, the concentration that gives 50% inhibition – in assay [1] is more than 40000 nM.

`COc1ccc(/C=C/c2cc(OC)c(OC)c(OC)c2)c(OP(=O)(O)O)c1O`: the GI50 with SK-OV-3 worked out at 465 nM; in the assay with DU-145, 2130 nM; with NCI-H460, 1550 nM.

`COc1cc(/C=C\c2ccc(OC)c(OP(=O)(O)O)c2O)cc(OC)c1OC`: the GI50 with SK-OV-3 amounted to 2.6 nM; in the assay on DU-145, 15.5 nM; in the assay on NCI-H460 it was 33.4 nM. The molecule also displayed an IC50 in assay [1] of more than 40000 nM.

As for `COc1cc(/C=C/c2ccc(OC)c(OP(=O)(O)O)c2O)cc(OC)c1OC`, the figures for the GI50 in the assay on SK-OV-3, in the assay with DU-145 and in the assay on NCI-H460 were 681 nM, 520 nM and 336 nM, respectively.

As to `COc1cc(/C=C\c2ccc(OC)c(OP(=O)(O)O)c2OP(=O)(O)O)cc(OC)c1OC`, the 50% growth inhibitory concentration (GI50) with SK-OV-3 amounted to 1.03 nM; in the assay with DU-145, 2.87 nM; in the assay with NCI-H460 it was 13.3 nM. In assay [1], the half-inhibitory concentration (IC50) was more than 40000 nM.

Turning to `COc1ccc(/C=C/c2cc(OC)c(OC)c(OC)c2)c(O)c1O`, the results for the GI50 with SK-OV-3, with DU-145 and in the assay on NCI-H460 were 2270 nM, 2140 nM and 1320 nM, respectively. Also, 11000 nM corresponded to half-maximal inhibition in assay [1] (IC50).

Take `COc1ccc(/C=C\c2cc(OC)c(OC)c(OC)c2)c(O)c1O` [COMBRETASTATIN A-1]: the GI50 in the assay on SK-OV-3 worked out at 38.4 nM; in the assay on DU-145, 32.6 nM; with NCI-H460, 15.3 nM. Also, half-maximal inhibition in assay [1] (IC50) was put at 1900 nM.
